# Measurements reported in patent publication US20210238139A1, “MODULATORS OF TRYPTOPHAN CATABOLISM” (E-Therapeutics PLC, priority 2018, published 2021).
# pIC50: −log10 of the molar value.
# Tested on: SK-OV-3 cells
# Assay: Effect of compounds on tryptophan catabolism in SK-OV-3 cell line (inhibition of kynurenine production, LC-MS/MS)
# Type: cell-based
# Settings: Homo sapiens, SK-OV-3, 24 h, SK-OV-3 cell line, 24 h incubation, kynurenine in supernatant by LC-MS/MS; read-out: IC50 Ranges (ic50 values for inhibition of Kynurenine production)
# Method in brief: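 Kynurenine in supernatants quantified by LC-MS/MS after 24 h compound exposure (37 °C; top 30 μM, eight 3-fold steps, duplicate) in DMEM F-12 containing 6 mg/mL L-tryptophan. Cells pre-plated overnight in McCoy's 5A with 10% FBS. Viability checked in parallel by ATP luminescence.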
row,SMILES,pIC50
1,"C#Cc1ccc(NC(=O)N(Cc2ccnc(C(F)(F)F)c2)C2CCC2)cc1 [Compound 153, 1-cyclobutyl-3-(4-ethynylphenyl)-1-[[2-(trifluoromethyl)-4-pyridyl]methyl]urea]",> 7.00
2,"Cc1ccc(CN(C(=O)Nc2ccc(C#Cc3ccccc3)cc2)C2CCCC2)o1 [Compound 155, 1-cyclopentyl-1-[(5-methyl-2-furyl)methyl]-3-[4-(2-phenylethynyl)phenyl]urea]",6.00 to 6.30
3,"Cc1ccc(CN(C(=O)Nc2ccc(C#CCc3ccccc3)cc2)C2CCCC2)o1 [Compound 156, 1-cyclopentyl-1-[(5-methyl-2-furyl)methyl]-3-[4-(3-phenylprop-1-ynyl)phenyl]urea]",6.00 to 6.30
4,"N#Cc1cccc(CN(C(=O)Nc2ccc(Cl)cc2)C2CCCC2)n1 [Compound 157, 3-(4-chlorophenyl)-1-[(6-cyano-2-pyridyl)methyl]-1-cyclopentyl-urea]",6.30 to 7.00
5,"Cc1ccc(CN(C(=O)Nc2ccc(-c3cnn(C)c3)nc2)C2CCCC2)o1 [Compound 160, 1-cyclopentyl-1-[(5-methyl-2-furyl)methyl]-3-[6-(1-methylpyrazol-4-yl)-3-pyridyl]urea]",5.30 to 6.00
6,"Cc1ccc(CN(C(=O)Nc2ncc(Br)s2)C2CCCC2)o1 [Compound 161, 3-(5-bromothiazol-2-yl)-1-cyclopentyl-1-[(5-methyl-2-furyl)methyl]urea]",> 7.00
7,"C#Cc1ccc(NC(=O)N(Cc2ccno2)C2CCCC2)cc1 [Compound 163, 1-cyclopentyl-3-(4-ethynylphenyl)-1-(isoxazol-5-ylmethyl)urea]",> 7.00
8,"Cc1ccc(CN(C(=O)Nc2ccc(-n3cc(CO)nn3)cc2)C2CCCC2)o1 [Compound 164, 1-cyclopentyl-3-[4-[4-(hydroxymethyl)triazol-1-yl]phenyl]-1-[(5-methyl-2-furyl)methyl]urea]",> 7.00
9,"CCN(Cc1ccc(C)o1)C(=O)Nc1ccccc1 [Compound 165, 1-ethyl-1-[(5-methyl-2-furyl)methyl]-3-phenyl-urea]",5.30 to 6.00
10,"CCCN(Cc1ccc(C)o1)C(=O)Nc1ccccc1 [Compound 166, 1-[(5-methyl-2-furyl)methyl]-3-phenyl-1-propyl-urea]",6.00 to 6.30
11,"Cc1ccc(CN(C(=O)Nc2ccccc2)C2CC2)o1 [Compound 167, 1-cyclopropyl-1-[(5-methyl-2-furyl)methyl]-3-phenyl-urea]",5.30 to 6.00
12,"Cc1ccc(CN(C(=O)Nc2nnc(-c3cccs3)o2)C2CCCC2)o1 [Compound 168, 1-cyclopentyl-1-[(5-methyl-2-furyl)methyl]-3-[5-(2-thienyl)-1,3,4-oxadiazol-2-yl]urea]",6.00 to 6.30
13,"Cc1ccc(CN(C(=O)Nc2nnc(C3CCCCC3)o2)C2CCCC2)o1 [Compound 169, 3-(5-cyclohexyl-1,3,4-oxadiazol-2-yl)-1-cyclopentyl-1-[(5-methyl-2-furyl)methyl]urea]",5.30 to 6.00
14,"Cc1nc(C)c(CN(C(=O)Nc2ccccc2)C2CCCC2)s1 [Compound 170, 1-cyclopentyl-1-[(2,4-dimethylthiazol-5-yl)methyl]-3-phenyl-urea]",5.30 to 6.00
15,"Cc1nc(C)c(CN(C(=O)Nc2ccc(F)c(F)c2)C2CCCC2)s1 [Compound 171, 1-cyclopentyl-1-[(2,4-dimethylthiazol-5-yl)methyl]-3-(3,4-difluorophenyl)-urea]",5.30 to 6.00
16,"Cc1ccc(CN(C(=O)Nc2ccc(Cl)cc2F)C2CCCC2)o1 [Compound 172, 3-(4-chloro-2-fluoro-phenyl)-1-cyclopentyl-1-[(5-methyl-2-furyl)methyl]urea]",6.30 to 7.00
17,"Cc1ccc(CN(C(=O)Nc2nnc(-c3ccccc3)o2)C2CCCC2)o1 [Compound 175, 1-cyclopentyl-1-[(5-methyl-2-furyl)methyl]-3-(5-phenyl-1,3,4-oxadiazol-2-yl) urea]",6.00 to 6.30
18,"Cc1ccc(CN(C(=O)Nc2ccccc2)C2CCCC2)o1 [Compound 176, 1-cyclopentyl-1-[(5-methyl-2-furyl)methyl]-3-phenyl-urea]",6.30 to 7.00
19,"CCc1ccc(NC(=O)N(Cc2ccc(C)o2)C2CCCC2)cc1 [Compound 177, 1-cyclopentyl-3-(4-ethylphenyl)-1-[(5-methyl-2-furyl)methyl]urea]",> 7.00
20,"Cc1ccc(CN(C(=O)Nc2ccccc2)C2CCC2)o1 [Compound 178, 1-cyclobutyl-1-[(5-methyl-2-furyl)methyl]-3-phenyl-urea]",5.30 to 6.00
21,"Cc1ccc(CN(C(=O)Nc2ccccc2)c2ncco2)o1 [Compound 179, 1-[(5-methyl-2-furyl)methyl]-1-oxazol-2-yl-3-phenyl-urea]",< 5.30
22,"Cc1ccc(CN(C(=O)Nc2ccc(F)cc2)c2ncco2)o1 [Compound 180, 3-(4-fluorophenyl)-1-[(5-methyl-2-furyl)methyl]-1-oxazol-2-yl-urea]",< 5.30

row,SMILES,pIC50
1,"Cc1ccc(CN(C(=O)NCCc2ccccc2)C2CCCC2)o1 [Compound 181, 1-cyclopentyl-1-[(5-methyl-2-furyl)methyl]-3-(2-phenylethyl)urea]",5.30 to 6.00
2,"Cc1ccc(CN(C(=O)Nc2ccc(Cl)cc2)c2nccn2C)o1 [Compound 182, 3-(4-chlorophenyl)-1-[(5-methyl-2-furyl)methyl]-1-(1-methylimidazol-2-yl) urea]",6.30 to 7.00
3,"Cc1ccc(CN(C(=O)Nc2ccc(Cl)cc2)c2cnc[nH]2)o1 [Compound 183, 3-(4-chlorophenyl)-1-(1H-imidazol-5-yl)-1-[(5-methyl-2-furyl)methyl]urea]",5.30 to 6.00
4,"O=C(Nc1ccccc1)N(Cc1cccs1)c1ccc(Cl)cc1 [Compound 196, 1-(4-chlorophenyl)-3-phenyl-1-(2-thienylmethyl)urea]",5.30 to 6.00
5,"CN(Cc1cccs1)C(=O)Nc1ccc(Cl)c(Cl)c1 [Compound 200, 3-(3,4-dichlorophenyl)-1-methyl-1-(2-thienylmethyl)urea]",5.30 to 6.00
6,"Cc1ccc(N(Cc2cccs2)C(=O)NC2CCCCC2)cc1 [Compound 201, 3-cyclohexyl-1-(p-tolyl)-1-(2-thienylmethyl) urea]",5.30 to 6.00
7,"COc1ccc(N(Cc2cccs2)C(=O)NC2CCCCC2)cc1 [Compound 202, 3-cyclohexyl-(4-methoxyphenyl)-1-(2-thienylmethyl) urea]",5.30 to 6.00
8,"Cc1oc(-c2ccccc2)nc1CNC(=O)Nc1ccccc1 [Compound 203, 1-[(5-methyl-2-phenyl-oxazol-4-yl)methyl]-3-phenyl-urea]",5.30 to 6.00
9,"O=C(NCc1sccc1Cl)Nc1cccc(Cl)c1 [Compound 204, 1-(3-chlorophenyl)-3-[(3-chloro-2-thienyl)methyl]urea]",< 5.30
10,COc1cc(NC(=O)N(Cc2ccc(C)o2)C2CCCC2)ccc1C#N [Compound 205],6.30 to 7.00
11,"Cc1ccc(CN(C(=O)Nc2ccc(Cl)cc2)C2CCCC2(F)F)o1 (stereo not shown) [Compound 206, 3-(4-chlorophenyl)-1-(2,2-difluorocyclopentyl)-1-[(5-methyl-2-furyl)methyl]urea]",> 7.00
12,"N#Cc1ccc(NC(=O)N(Cc2cc3ccccn3n2)C2CCC2)cc1 [Compound 207, 3-(4-cyanophenyl)-1-cyclobutyl-1-(pyrazolo[1,5-a]pyridin-2-ylmethyl)urea]",6.30 to 7.00
13,"Cc1ccc(CN(C(=O)Nc2ccc(C#N)cc2)C2CC(F)C2)o1 (stereo not shown) [Compound 208, 3-(4-cyanophenyl)-1-(3-fluorocyclobutyl)-1-[(5-methyl-2-furyl)methyl]urea]",6.00 to 6.30
14,"N#Cc1ccc(NC(=O)N(Cc2ccc3ncoc3c2)C2CCC2)cc1 [Compound 209, 1-(1,3-benzoxazol-6-ylmethyl)-3-(4-cyanophenyl)-1-cyclobutyl-urea]",6.00 to 6.30
15,"N#Cc1ccc(NC(=O)N(Cc2cn3ccccc3n2)C2CCC2)cc1 [Compound 210, 3-(4-cyanophenyl)-1-cyclobutyl-1-(imidazo[1,2-a]pyridin-2-ylmethyl)urea]",5.30 to 6.00
16,"N#Cc1ccc(NC(=O)N(Cc2cn3ccncc3n2)C2CCC2)cc1 [Compound 211, 3-(4-cyanophenyl)-1-cyclobutyl-1-(imidazo[1,2-a]pyrazin-2-ylmethyl)urea]",< 5.30
17,"O=C(Nc1ccc(Cl)cc1)N(Cc1cn2ccncc2n1)C1CCC1 [Compound 212, 3-(4-chlorophenyl)-1-cyclobutyl-1-(imidazo[1,2-a]pyrazin-2-ylmethyl)urea]",5.30 to 6.00
18,"Cc1ccc(CN(C(=O)Nc2ccc(C#N)cc2)C2CCCC2(F)F)o1 (stereo not shown) [Compound 214, 3-(4-cyanophenyl)-1-(2,2-difluorocyclopentyl)-1-[(5-methyl-2-furyl)methyl]urea]",> 7.00
19,"COC1CC(N(Cc2ccc(C)o2)C(=O)Nc2ccc(C#N)cc2)C1 (stereo not shown) [Compound 216, 3-(4-cyanophenyl)-1-(3-methoxycyclobutyl)-1-[(5-methyl-2-furyl)methyl]urea]",> 7.00
20,"Cn1ncc2ccc(CN(C(=O)Nc3ccc(C#N)cc3)C3CCC3)cc21 [Compound 217, 3-(4-cyanophenyl)-1-cyclobutyl-1-[(1-methylindazol-6-yl)methyl]urea]",6.30 to 7.00
21,"Cc1ccc(CN(C(=O)Nc2ccc(C#N)cc2)c2cnn(C)c2)o1 [Compound 218, 3-(4-cyanophenyl)-1-[(5-methyl-2-furyl)methyl]-1-(1-methylpyrazol-4-yl)urea]",6.00 to 6.30

# Same assay, conditions: Homo sapiens, SK-OV-3, 24 h, read-out: IC50 Ranges (ic50 values for inhibition of Kynurenine production)
row,SMILES,pIC50
1,"Cc1ccc(CN(C(=O)Nc2ccc(C3CN(C(=O)OC(C)(C)C)C3)cc2)C2CCCC2)o1 [Compound 159, tert-butyl 3-[4-[[cyclopentyl-[(5-methyl-2-furyl)methyl]-carbamoyl]amino]phenyl]azetidine-1-carboxylate]",5.30 to 6.00

# Same assay, conditions: SK-OV-3 cell line, 24 h incubation, kynurenine in supernatant by LC-MS/MS; read-out: IC50 Ranges (ic50 values for inhibition of Kynurenine production)
row,SMILES,pIC50
1,"Cc1ccc(CN(C(=O)Nc2ccc(Cl)cc2)c2cncn2C)o1 [Compound 193, 3-(4-chlorophenyl)-1-[(5-methyl-2-furyl)methyl]-1-(3-methylimidazol-4-yl)urea]",6.00 to 6.30
2,"O=C(Nc1ccccc1)N(Cc1cccs1)C1CCCC1 [Compound 195, 1-cyclopentyl-3-phenyl-1-(2-thienylmethyl)urea]",6.30 to 7.00
